Read-outs that look alike come from different tables or passages of the source.
What was measured:
CD70 mRNA = assay: CD70 transcripts by real time RT-PCR in anti-CD3 + anti-CD28 stimulated CD4+ T cells; format: cell-based, human; settings: 5 μm 5-azaC, 50 μm Pca, 20 μm Hyd, 40 μm U0126, 25 μm PD98059, 3 days
Description: (§1) In other studies, T cells were isolated by negative selection using magnetic beads and instructions provided by the manufacturer (Pan T cell Isolation Kit, Miltenyi), and the CD4+ or CD8+ subset was similarly isolated by magnetic cell sorting. Jurkat cells (E6-1) were cultured as previously described (See, e.g., Cornacchia et al., J Immunol 140:2197 (1998)). Purified human CD4+ T cells were first stimulated with plate bound anti-CD3 and soluble anti-CD28. Briefly, 24 well plates were coated with 300 μl of anti-CD3 (10 μg/ml in PBS—SouthernBiotech) 18 hours 4° C., washed, then 2×10^6 purified T cells were added to the wells in 2 ml RPMI 1640/10% FCS containing 2 μg/ml anti-CD28 (SouthernBiotech). The plates were incubated 37° C. in a humidified atmosphere containing 5% CO2 for 18-24 hours, then treated with 5 μm 5-azaC (Aldrich), 50 μm Pca (Sigma), 20 μm Hyd (Aldrich), 40 μm UO126 (Promega) or 25 μm PD98059 (Promega), and cultured for 3 additional days as described (See, e.g., Oelke et al., Arthritis Rheum 50:1850 (2004)).

[1] = test system: CD70-dependent B cell help; assay: TT48E T cell clone and autologous B cell costimulation without PWM, IgG ELISA; format: cell-based, human; settings: P<0.05
Description: T cell and B cell costimulation assays. E-rosette-purified T cells were stimulated for 16 hours with PHA and then treated with the indicated chemicals for an additional 72 hours as described above. Where indicated, T cell subsets were isolated by negative selection using magnetic beads (Miltenyi). B cells (1-4×10^5) enriched by negative selection using magnetic beads (Miltenyi) and assessed to be 70-85% pure using PE-conjugated anti-human CD21 (PharMingen), were added to washed, drug-treated autologous T cells, at T cell to B cell ratios of 4:1, 2:1, 1:1, 1:2, and 1:4. Where indicated, 0.625 μg/ml of PWM (Aldrich) was added. The cells were cultured in RPMI 1640/10% FBS/penicillin/streptomycin for 8 days in 96-well roundbottomed plates (Costar) containing a 200 μl total volume (performed in duplicate). Cells were supplemented with 50 μl of medium on day 4. Where indicated, 1 μg/ml of anti-CD70 monoclonal antibody (HNE51) (Dako) was added to the cultures. TT48E cells were similarly stimulated with PHA (1 μg/ml) for 18 hours, treated with the indicated drugs for 3 days, then similarly cultured with autologous B cells for 8 days. […]
IgG enzyme-linked immunosorbent assays (ELISAs). […] Serial dilutions of purified human IgG (Sigma) were used for quantitation. […] The plates were read at 405 nm using a SpectraMax spectrophotometer (Molecular Devices). […]

TT48E = settings: 6 experiments
CD70 promoter = assay: Bisulfite sequencing of the CD70 promoter in CD4+ T cells; format: cell-based, human; settings: anti-CD3 and anti-CD28 stimulated CD4+ T cells vs stimulated untreated controls
Description: as §1
Bisulfite sequencing. The putative CD70 promoter was identified using the published CD70 cDNA sequence and Tfsitescan software. Deoxycytosine (dC) and deoxymethylcytosine (d^mC) bases in the gene promoter and 5′ flanking sequences were identified by bisulfite treatment of purified DNA followed by nested PCR amplification of 3 sequential fragments to span the entire region. The primers were designed to avoid CG pairs and to account for the conversion of dC to dU by the bisulfite. EcoRI sites were added to the forward primers, and XbaI to the reverse, to facilitate cloning. The amplified fragments were then cloned into PBS+, and 5 clones sequenced for each fragment. The primers used were: […]
The effect of lupus and DNA methylation inhibitors on a regulatory element in the CD70 promoter was examined. DNA was isolated from the CD4+ T cells of 7 healthy individuals or 6 lupus patients, bisulfite treated, the region from −466-−515, containing 6 CG pairs was amplified by PCR, and 5 fragments sequenced from each individual. The average methylation status of the 6 CG pairs for healthy versus lupus individuals is shown (FIG. 8, NI and Lupus, respectively). CD4+ T cells from 5 individuals were also stimulated with PHA, treated with the irreversible DNA methyltransferase inhibitor 5-azacytidine (5-azaC), and the methylation status of the 6 CG pairs similarly analyzed from the 25 fragments sequenced (FIG. 8, 5-azaC). […] Results are presented as the mean±SEM of the average methylation of the 6 CG pairs, measured from the 10-35 determinations/group.
The effects of the DNA methylation inhibitors on the methylation status of this region were then compared. […] Again, 5 cloned fragments were sequenced from each control, for a total of 35 determinations per CG pair. […] FIG. 14 compares the average methylation for the 10 CG pairs (−515 to −423) in the T cells treated with DNA methylation inhibitors relative to stimulated, untreated controls.

KIR3DL1 = target: T1, KIR3DL1 (Homo sapiens, UniProt P43629); assay: Macrophage killing assay with 5-azaC treated T cells, 51Cr release; format: cell-based; settings: 18 hrs
T1 construct: endogenous in cells; host or cells: primary T cells of healthy donors, PHA-stimulated and 5-azaC treated, with autologous monocytes/macrophages
T1 sequence (P43629 22-444): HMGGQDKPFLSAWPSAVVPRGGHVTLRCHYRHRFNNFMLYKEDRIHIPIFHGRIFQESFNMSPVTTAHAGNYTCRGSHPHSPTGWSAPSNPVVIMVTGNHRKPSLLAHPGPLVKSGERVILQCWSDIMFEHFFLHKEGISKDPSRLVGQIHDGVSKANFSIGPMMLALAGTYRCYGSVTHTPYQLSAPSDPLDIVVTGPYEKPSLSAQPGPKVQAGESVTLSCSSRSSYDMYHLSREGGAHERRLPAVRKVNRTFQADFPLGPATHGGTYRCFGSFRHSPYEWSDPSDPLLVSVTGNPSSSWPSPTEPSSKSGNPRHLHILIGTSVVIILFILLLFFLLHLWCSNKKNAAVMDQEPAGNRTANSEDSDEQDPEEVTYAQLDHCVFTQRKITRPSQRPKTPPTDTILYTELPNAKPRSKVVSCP

SMILES	CD70 transcripts relative to β-actin, treated vs untreated (CD70 mRNA)	IgG produced by B cells cultured with drug-treated TT48E vs untreated T cells [1]	increase of CD70 expression on TT48E (TT48E; 1 μM 5-azaC, 3 days, P=0.048)	methylation of the 10 CG pairs between −515 and −423 of the CD70 promoter (CD70 promoter)	killing of autologous Mo by demethylated (5-azaC treated) T cells (KIR3DL1)	increase of CD70 expression on TT48E (TT48E; 40 μM U0126, 3 days, P=0.004)
Nc1ncn([C@@H]2O[C@H](CO)[C@@H](O)[C@H]2O)c(=O)n1 [5-azaC, 5-azacytidine]	increase CD70 transcripts	produce greater amounts of IgG	1.69±0.33 fold	hypomethylated compared to controls	spontaneously kill autologous Mo	–
N#CC(=C(/N)Sc1ccccc1N)/C(C#N)=C(\N)Sc1ccccc1N [U0126]	increase CD70 transcripts	produce greater amounts of IgG	–	appears to demethylate	–	1.87±0.37 fold

Source: US20110256121A1, “METHODS AND KITS FOR DIAGNOSING OR MONITORING AUTOIMMUNE AND CHRONIC INFLAMMATORY DISEASES” (THE REGENTS OF THE UNIVERSITY OF MICHIGAN, priority 2008, published 2011)
